Data published in PubChem BioAssay (NCI).
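Grown in 96-well plates, cells were treated for 48 hours with each compound at five concentrations. Insufficient inhibition: endpoint recorded as highest concentration tested. TGI: total growth inhibition.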

What was measured:
Assay in all cases: NCI tumour cell line growth inhibition, 48 h
[1] = tested on: CCRF-CEM leukemia
[2] = tested on: SF-295 CNS
[3] = tested on: MALME-3M melanoma
[4] = tested on: SK-OV-3 ovarian
[5] = tested on: K-562 leukemia
[6] = tested on: SNB-75 CNS
[7] = tested on: BT-549 breast
[8] = tested on: SNB-19 CNS
[9] = tested on: 786-0 renal
[10] = tested on: PC-3 prostate
[11] = tested on: U251 CNS
[12] = tested on: OVCAR-4 ovarian
[13] = tested on: IGROV1 ovarian
[14] = tested on: OVCAR-5 ovarian
[15] = tested on: DU-145 prostate
[16] = tested on: SR leukemia
[17] = tested on: M14 melanoma
[18] = tested on: UACC-62 melanoma
[19] = tested on: MCF7 breast
[20] = tested on: MDA-MB-435
[21] = tested on: HT29 colon
[22] = tested on: HCT-116 colon
[23] = tested on: SW-620 colon
[24] = tested on: MDA-MB-231 breast
[25] = tested on: RXF 393 renal
[26] = tested on: NCI-H23 lung
[27] = tested on: A549 NSCLC
[28] = tested on: MOLT-4 leukemia
[29] = tested on: HOP-92 NSCLC
[30] = tested on: ACHN renal
[31] = tested on: SF-268 CNS
[32] = tested on: HS 578T breast
[33] = tested on: CAKI-1 renal
[34] = tested on: EKVX NSCLC
[35] = tested on: HL-60(TB) leukemia
[36] = tested on: UO-31 renal
[37] = tested on: MDA-N
[38] = tested on: UACC-257 melanoma
[39] = tested on: TK-10 renal
[40] = tested on: T-47D breast
[41] = tested on: SK-MEL-2 melanoma
[42] = tested on: HCT-15 colon
[43] = tested on: HOP-62 NSCLC
[44] = tested on: SK-MEL-28 melanoma
[45] = tested on: NCI/ADR-RES ovarian
[46] = tested on: OVCAR-3 ovarian
[47] = tested on: LOX IMVI melanoma
[48] = tested on: SN12C renal
[49] = tested on: NCI-H522 lung
[50] = tested on: KM12 colon
[51] = tested on: OVCAR-8 ovarian
[52] = tested on: NCI-H460 lung
[53] = tested on: RPMI-8226 leukemia
[54] = tested on: COLO 205 colon
[55] = tested on: SK-MEL-5 melanoma
[56] = tested on: NCI-H226 lung
[57] = tested on: HCC-2998 colon
[58] = tested on: SF-539 CNS
[59] = tested on: A498 renal

Compound: COc1ccc(C)cc1N1C(=O)C2ON(Cc3ccc(CC(N)=O)cc3)C(c3c4ccccc4c(Cl)c4ccccc34)C2C1=O (configuration not stated)
- TGI [1]: > 100 µM
- TGI [2]: 69.1 µM
- TGI [3]: > 100 µM
- TGI [4]: > 100 µM
- TGI [5]: > 100 µM
- TGI [6]: 38.9 µM
- TGI [7]: 74.5 µM
- TGI [8]: > 100 µM
- TGI [9]: 50.2 µM
- TGI [10]: > 100 µM
- TGI [11]: 60.4 µM
- TGI [12]: 84.6 µM
- TGI [13]: > 100 µM
- TGI [14]: 58.5 µM
- TGI [15]: 86.5 µM
- TGI [16]: 48.6 µM
- TGI [17]: 38.8 µM
- TGI [18]: 45.2 µM
- TGI [19]: > 100 µM
- TGI [20]: 62.1 µM
- TGI [21]: 40.9 µM
- TGI [22]: 32.7 µM
- TGI [23]: > 100 µM
- TGI [24]: 49 µM
- TGI [25]: 33.7 µM
- TGI [26]: 96.4 µM
- TGI [27]: > 100 µM
- TGI [28]: > 100 µM
- TGI [29]: > 100 µM
- TGI [30]: 75 µM
- TGI [31]: 82.3 µM
- TGI [32]: > 100 µM
- TGI [33]: 76.5 µM
- TGI [34]: 98 µM
- TGI [35]: > 100 µM
- TGI [36]: 48 µM
- TGI [37]: 33 µM
- TGI [38]: 33.2 µM
- TGI [39]: 49.5 µM
- TGI [40]: > 100 µM
- TGI [41]: 44.5 µM
- TGI [42]: 73.3 µM
- TGI [43]: 93.7 µM
- TGI [44]: > 100 µM
- TGI [45]: 76.9 µM
- TGI [46]: > 100 µM
- TGI [47]: 54.7 µM
- TGI [48]: 45.7 µM
- TGI [49]: > 100 µM
- TGI [50]: 29.1 µM
- TGI [51]: 84.6 µM
- TGI [52]: 36.6 µM

Compound: COc1ccc(C2Oc3ccc(Cl)cc3C=C2[N+](=O)[O-])cc1 (configuration not stated)
- TGI [1]: > 100 µM
- TGI [2]: > 100 µM
- TGI [3]: > 100 µM
- TGI [4]: > 100 µM
- TGI [5]: > 100 µM
- TGI [7]: > 100 µM
- TGI [8]: > 100 µM
- TGI [9]: > 100 µM
- TGI [10]: > 100 µM
- TGI [11]: > 100 µM
- TGI [12]: > 100 µM
- TGI [13]: > 100 µM
- TGI [14]: > 100 µM
- TGI [15]: > 100 µM
- TGI [16]: > 100 µM
- TGI [53]: > 100 µM
- TGI [17]: > 100 µM
- TGI [18]: > 100 µM
- TGI [19]: > 100 µM
- TGI [20]: > 100 µM
- TGI [21]: > 100 µM
- TGI [22]: > 100 µM
- TGI [24]: > 100 µM
- TGI [25]: > 100 µM
- TGI [26]: > 100 µM
- TGI [27]: > 100 µM
- TGI [28]: > 100 µM
- TGI [54]: > 100 µM
- TGI [30]: > 100 µM
- TGI [31]: > 100 µM
- TGI [32]: > 100 µM
- TGI [33]: > 100 µM
- TGI [34]: > 100 µM
- TGI [35]: > 100 µM
- TGI [36]: > 100 µM
- TGI [37]: > 100 µM
- TGI [38]: > 100 µM
- TGI [39]: > 100 µM
- TGI [40]: > 100 µM
- TGI [42]: > 100 µM
- TGI [43]: > 100 µM
- TGI [44]: > 100 µM
- TGI [55]: > 100 µM
- TGI [45]: > 100 µM
- TGI [46]: > 100 µM
- TGI [47]: > 100 µM
- TGI [48]: > 100 µM
- TGI [49]: > 100 µM
- TGI [50]: > 100 µM
- TGI [51]: > 100 µM
- TGI [52]: > 100 µM

Compound: [N-]=[N+]=CC(=O)C1CCCN1C(=O)c1ccccc1 (configuration not stated)
- TGI [1]: > 10 µM
- TGI [56]: > 10 µM
- TGI [2]: > 10 µM
- TGI [3]: > 10 µM
- TGI [4]: > 10 µM
- TGI [5]: > 10 µM
- TGI [6]: 8.26 µM
- TGI [7]: > 10 µM
- TGI [8]: > 10 µM
- TGI [9]: > 10 µM
- TGI [10]: > 10 µM
- TGI [11]: > 10 µM
- TGI [12]: > 10 µM
- TGI [13]: > 10 µM
- TGI [14]: > 10 µM
- TGI [57]: > 10 µM
- TGI [15]: > 10 µM
- TGI [16]: > 10 µM
- TGI [53]: > 10 µM
- TGI [17]: > 10 µM
- TGI [18]: > 10 µM
- TGI [19]: > 10 µM
- TGI [20]: > 10 µM
- TGI [21]: > 10 µM
- TGI [22]: > 10 µM
- TGI [23]: > 10 µM
- TGI [24]: > 10 µM
- TGI [25]: > 10 µM
- TGI [26]: > 10 µM
- TGI [27]: > 10 µM
- TGI [28]: > 10 µM
- TGI [54]: > 10 µM
- TGI [29]: > 10 µM
- TGI [30]: > 10 µM
- TGI [31]: > 10 µM
- TGI [32]: > 10 µM
- TGI [33]: > 10 µM
- TGI [34]: > 10 µM
- TGI [35]: > 10 µM
- TGI [36]: > 10 µM
- TGI [58]: > 10 µM
- TGI [37]: > 10 µM
- TGI [38]: > 10 µM
- TGI [39]: > 10 µM
- TGI [40]: > 10 µM
- TGI [41]: > 10 µM
- TGI [42]: > 10 µM
- TGI [43]: > 10 µM
- TGI [44]: > 10 µM
- TGI [55]: > 10 µM
- TGI [45]: > 10 µM
- TGI [46]: > 10 µM
- TGI [47]: > 10 µM
- TGI [59]: > 10 µM
- TGI [48]: > 10 µM
- TGI [50]: > 10 µM
- TGI [51]: > 10 µM
- TGI [52]: > 10 µM

Compound: O=c1c2c3c(sc2[nH]c(=S)n1-c1ccccc1)CCCc1ccc([N+](=O)[O-])cc1-3
- TGI [56]: > 100 µM
- TGI [2]: > 100 µM
- TGI [3]: > 100 µM
- TGI [4]: > 100 µM
- TGI [5]: 35.3 µM
- TGI [7]: 72.6 µM
- TGI [8]: > 100 µM
- TGI [9]: > 100 µM
- TGI [10]: > 100 µM
- TGI [11]: > 100 µM
- TGI [12]: > 100 µM
- TGI [13]: 27.3 µM
- TGI [14]: > 100 µM
- TGI [57]: 77.3 µM
- TGI [15]: > 100 µM
- TGI [16]: 85.8 µM
- TGI [53]: 62.7 µM
- TGI [17]: > 100 µM
- TGI [18]: 85 µM
- TGI [19]: > 100 µM
- TGI [20]: > 100 µM
- TGI [21]: 61.3 µM
- TGI [22]: > 100 µM
- TGI [23]: 25.4 µM
- TGI [24]: > 100 µM
- TGI [25]: 38.7 µM
- TGI [26]: > 100 µM
- TGI [27]: > 100 µM
- TGI [28]: 52 µM
- TGI [54]: > 100 µM
- TGI [29]: 76.6 µM
- TGI [30]: > 100 µM
- TGI [31]: > 100 µM
- TGI [32]: > 100 µM
- TGI [33]: > 100 µM
- TGI [34]: > 100 µM
- TGI [35]: 50.8 µM
- TGI [36]: > 100 µM
- TGI [37]: > 100 µM
- TGI [38]: > 100 µM
- TGI [39]: > 100 µM
- TGI [40]: 37.1 µM
- TGI [41]: > 100 µM
- TGI [42]: 72.7 µM
- TGI [43]: > 100 µM
- TGI [44]: > 100 µM
- TGI [55]: > 100 µM
- TGI [45]: 74 µM
- TGI [46]: > 100 µM
- TGI [47]: 62.2 µM
- TGI [59]: > 100 µM
- TGI [48]: > 100 µM
- TGI [49]: 36.5 µM
- TGI [50]: > 100 µM
- TGI [51]: > 100 µM
- TGI [52]: > 100 µM
